Laboratory results published in patent publication US20250230151A1, “COMPOUNDS FOR CANCERS DRIVEN BY BRAF MUTATION” (THE BOARD OF TRUSTEES OF THE UNIVERSITY OF ILLINOIS, priority 2021, published 2025).
Where two headings read alike, the source gives them in different places.

Key:
A375 cells = test: 72-hour cell viability assay (Alamar Blue), A375; assay type: cell-based, human; details: for IC50: 72-hour incubation, Alamar Blue, V600E BRAF
Procedure, shortened: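 Seed cells, adhere overnight; add compound (DMSO 1% final); incubate 72 h, 37° C., 5% CO2; assess viability with Alamar Blue. Raptinal ([…]) = dead control.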

HT29 cells = test: 72-hour cell viability assay (Alamar Blue), HT29; assay type: cell-based; details: colon
Protocol: (§1) Cell Culture and reagents. All cell lines were grown in a 37° C., 5% CO2, humidified environment, in media containing 1% penicillin/streptomycin. Cell culture conditions are as follows: MDCK cells transfected with MDR1 (or ABCB1) were obtained from the Netherlands Cancer Institute (Amsterdam, The Netherlands) and maintained in DMEM with 10% fetal bovine serum (FBS, Gemini). Traditional cell lines A375, CHL-1, B16F10, and U118MG were grown in DMEM with 10% FBS, SK-MEL-28, U87 and T98G in EMEM with 10% FBS, AM-38 in EMEM with 20% HI-FBS (Gibco), HT29 in McCoy's 5A with 10% FBS, HCT116 in RPMI with 10% FBS. Compounds were dissolved in DMSO (1% final concentration, Sigma-Aldrich) for cell culture studies.
(§2) Cell viability assays. Cells were harvested, seeded in a 96-well plate and allowed to adhere overnight. Compound was added to each well in DMSO (1% final concentration). Cells were incubated for 72 hours before viability was assessed by the Alamar Blue Assay. Raptinal ([…]) was used as a dead control.

AM-38 cells = test: 72-hour cell viability assay (Alamar Blue), AM-38; assay type: cell-based; details: glioma
Protocol: as §1, §2

CHL-1 cells = test: 72-hour cell viability assay (Alamar Blue), CHL-1; assay type: cell-based
Protocol: as §1, §2

T98G cells = test: 72-hour cell viability assay (Alamar Blue), T98G; assay type: cell-based; details: WT BRAF
Protocol: as §1, §2

U118MG cells = test: 72-hour cell viability assay (Alamar Blue), U118MG; assay type: cell-based; details: WT BRAF
Protocol: as §1, §2

U87 cells = test: 72-hour cell viability assay (Alamar Blue), U87; assay type: cell-based; details: WT BRAF
Protocol: as §1, §2

P-gp = target: T1, P-gp (Mus musculus, UniProt P21447); test: P-gp in vivo assay (elacridar pretreatment); details: for enhancement of BBB penetrance by P-gp inhibition: elacridar 2.5 mg/kg, compound 25 mg/kg IV
T1 construct: tissue Charles River (CD-1 mice); host or cells: living CD-1 mice; blood-brain barrier / brain
Protocol: Actionability in animals. […] At each time point, blood and brain were harvested, and compound concentrations in each compartment were quantified.
In this experiment, brain-to-blood ratios of P-gp substrates […] with the P-gp inhibitor compared to vehicle, while those of non-substrates will remain the same.
Blood-brain barrier penetrance P-gp in vivo assays. […] CD-1 mice were purchased from Charles River and acclimated for 4-7 days before use. Mice were administered elacridar or its vehicle at 2.5 mg/kg via lateral tail vein injection. Thirty-minutes post injection, mice were then treated with compounds at 25 mg/kg intravenously now in the other tail vein. At each time point, mice were sacrificed and blood was collected by lacerating the right auricle with iris scissors. An 18-gauge angiocatheter was inserted through the left ventricle, and all residual circulatory volume was removed by perfusing 0.9% saline solution via an analog peristaltic pump. Brains were harvested from the cranial vault and flash frozen. Blood samples were centrifuged at 13,000 ref for 10 minutes and the supernatant serum was stored at −80° C. until analysis. Brain samples were homogenized in ice-cold methanol and centrifuged first at 2000 ref for three minutes and then 13,000 ref for ten minutes and supernatant and tissue debris were separated and stored at −80° C. The resultant supernatant and serum were analyzed by LC-MS/MS to determine compound concentrations. […] All compounds were administered at 5 mL/kg.

[1] = system: MAPK signaling (phospho-MEK1/2, phospho-ERK1/2) in A375 cells; test: Immunoblotting of MEK1/2 and ERK1/2 phosphorylation, A375; assay type: cell-based, human; details: for dose-response of phospho-ERK1/2 inhibition: A375, 0.01-10 μM, 1 and 24 h; for inhibition of MAPK signaling (MEK1/2 and ERK1/2 phosphorylation): A375, 1 h of treatment; for inhibition of ERK1/2 phosphorylation after 24 h: A375, highest concentrations (10 μM)
Protocol: Immunoblotting. Cells were lysed using RIPA buffer containing phosphatase (BioVision) and protease inhibitor cocktail (Calbiochem). Protein concentration was determined using the BCA assay (Pierce). Cell lysates containing […] of protein were loaded into each lane of 4% to 20% gradient gels (Bio-Rad) for SDS-PAGE. Proteins were transferred onto PDVF membrane for Western blot analysis. Blots were blocked with BSA for one hour followed by incubation with primary antibody overnight (dilution according to manufacturer's protocols), and then secondary antibody was incubated for one hour. Blots were then imaged with a ChemiDoc Touch (Bio-Rad) after incubation with SuperSignal West Pico Solution (ThermoFischer) following manufacturer's protocols. All antibodies were purchased from Cell Signaling Technology: p-ERK (9101S), ERK (4695S), p-MEK (9121S), MEK (8727S), vinculin (13901S) Rabbit IgG-HRP (7074), […] (5125).

[2] = Homo sapiens, HT-29, V600E BRAF
[3] = Homo sapiens, AM-38, V600E BRAF
[4] = Homo sapiens, CHL-1, WT BRAF, melanoma, read-out: CHL-1 (WT) IC50
[5] = Homo sapiens, CHL-1, WT BRAF, read-out: CHL-1 IC50
[6] = Homo sapiens, T98G, glioma, read-out: T98G (WT) IC50
[7] = Homo sapiens, T98G, read-out: T98G IC50
[8] = Homo sapiens, U-118-MG, glioma, read-out: U118MG (WT) IC50
[9] = Homo sapiens, U-118-MG, read-out: U118MG IC50
[10] = Homo sapiens, U-87 MG, read-out: U87 IC50
[11] = Homo sapiens, glioma, read-out: U87 (WT) IC50

T1 sequence (P21447 whole entry): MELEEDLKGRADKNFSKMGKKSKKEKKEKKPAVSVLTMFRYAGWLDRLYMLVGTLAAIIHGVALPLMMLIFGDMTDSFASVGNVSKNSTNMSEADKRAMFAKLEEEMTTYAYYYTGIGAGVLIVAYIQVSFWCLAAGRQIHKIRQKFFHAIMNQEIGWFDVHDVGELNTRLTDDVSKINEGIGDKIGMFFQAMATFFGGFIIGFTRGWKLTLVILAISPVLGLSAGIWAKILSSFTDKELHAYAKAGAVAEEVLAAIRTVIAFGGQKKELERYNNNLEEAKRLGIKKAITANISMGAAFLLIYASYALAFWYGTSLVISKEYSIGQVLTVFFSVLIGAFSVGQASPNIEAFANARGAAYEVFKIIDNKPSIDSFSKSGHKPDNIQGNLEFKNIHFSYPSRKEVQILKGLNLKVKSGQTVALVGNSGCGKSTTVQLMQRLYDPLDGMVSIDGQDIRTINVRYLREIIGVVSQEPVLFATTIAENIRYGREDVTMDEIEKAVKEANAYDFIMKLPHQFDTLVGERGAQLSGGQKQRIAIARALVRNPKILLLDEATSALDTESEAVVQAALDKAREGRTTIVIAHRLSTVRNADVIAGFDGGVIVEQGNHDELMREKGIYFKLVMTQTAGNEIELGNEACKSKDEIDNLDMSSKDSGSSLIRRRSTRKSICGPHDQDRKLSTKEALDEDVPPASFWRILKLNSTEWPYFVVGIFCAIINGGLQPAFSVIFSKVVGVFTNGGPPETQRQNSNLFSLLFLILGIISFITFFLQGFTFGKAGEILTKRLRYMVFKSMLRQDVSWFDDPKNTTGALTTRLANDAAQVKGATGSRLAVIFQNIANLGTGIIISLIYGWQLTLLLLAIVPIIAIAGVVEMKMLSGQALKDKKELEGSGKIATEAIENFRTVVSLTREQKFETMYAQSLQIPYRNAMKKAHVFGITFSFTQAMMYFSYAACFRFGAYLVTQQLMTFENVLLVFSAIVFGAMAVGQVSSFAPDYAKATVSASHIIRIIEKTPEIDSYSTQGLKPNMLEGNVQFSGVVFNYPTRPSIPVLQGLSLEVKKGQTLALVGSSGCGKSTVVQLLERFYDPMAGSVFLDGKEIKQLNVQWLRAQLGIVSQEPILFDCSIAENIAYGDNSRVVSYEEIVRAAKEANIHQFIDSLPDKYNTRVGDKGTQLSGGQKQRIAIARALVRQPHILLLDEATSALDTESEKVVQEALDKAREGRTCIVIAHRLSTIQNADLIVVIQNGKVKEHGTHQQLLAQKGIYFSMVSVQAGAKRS

Row | Structure (SMILES) | IC50 (A375 cells; Homo sapiens, A-375, 72 h) [nM] | IC50 (HT29 cells; [2]) [nM] | IC50 (AM-38 cells; [3]) [nM] | IC50 (CHL-1 cells; [4]) [nM] | IC50 (CHL-1 cells; [5]) [nM] | IC50 (T98G cells; [6]) [nM] | IC50 (T98G cells; [7]) [nM] | IC50 (U118MG cells; [8]) [nM] | IC50 (U118MG cells; [9]) [nM] | IC50 (U87 cells; [10]) [nM] | IC50 (U87 cells; [11]) [nM] | dose-response of phospho-ERK1/2 inhibition [1] | inhibition of MAPK signaling (MEK1/2 and ERK1/2 phosphorylation) [1] | inhibition of ERK1/2 phosphorylation after 24 h [1] | enhancement of BBB penetrance by P-gp inhibition (P-gp; 15 min) [fold] | enhancement of BBB penetrance by P-gp inhibition (P-gp; 60 min) [fold] | other results
1 | CCCS(=O)(=O)Nc1cc(Cl)cc(-c2nc(C(C)(C)C)sc2-c2ccnc(N)n2)c1F [6-261, N-(3-(5-(2-aminopyrimidin-4-yl)-2-(tert-butyl)thiazol-4-yl)-5-chloro-2-fluorophenyl)propane-1-sulfonamide] | 2.8 ± 0.53 | 1.67 ± 0.36 | 8.5 ± 1.2 | > 1000 | > 1000 | > 1000 | > 1000 | > 1000 | > 1000 | > 1000 | > 1000 | clear dose-dependent inhibition | strongly inhibited | sustained |  |  | effect of P-gp inhibitor (elacridar) co-treatment on brain exposure (P-gp; result in words): did display potentiation
2 | CC(C)(C)c1nc(-c2cccc(NS(=O)(=O)c3c(F)cccc3F)c2F)c(-c2ccnc(N)n2)s1 [Dabrafenib, reference compound] |  |  |  |  |  |  |  |  |  |  |  |  |  | diminished inhibition | 4.3 | 5.8 | IC50 (A375 cells): 7.46 ± 1.1 nM; IC50 (A375 cells; listed as 6-74): 5.38 ± 0.38 nM; % Emax (A375 cells; A375, 72-hour incubation): 65%; IC50 (HT29 cells; V600E BRAF): 4.74 ± 0.84 nM; IC50 (AM-38 cells; V600E BRAF): 6.84 ± 0.84 nM; IC50 (CHL-1 cells; WT BRAF, read-out: CHL-1 IC50): > 1000 nM; IC50 (T98G cells; read-out: T98G IC50): > 1000 nM; IC50 (U118MG cells; read-out: U118MG IC50): > 1000 nM; IC50 (U87 cells; read-out: U87 IC50): > 1000 nM
3 | CCCS(=O)(=O)Nc1cc(Cl)cc(-c2nc(C(C)(C)C)sc2-c2ccnc(NCCCCC(=O)O)n2)c1F [6-263, 5-((4-(2-(tert-butyl)-4-(5-chloro-2-fluoro-3-(propylsulfonamido)phenyl)thiazol-5-yl)pyrimidin-2-yl)amino)pentanoic acid] | 27.3 ± 3.01 | 21.4 ± 4.21 | 93.2 ± 14.1 | > 10000 | > 10000 | > 10000 | > 10000 | > 10000 | > 10000 | > 10000 | > 10000 | clear dose-dependent inhibition | strongly inhibited | sustained | 1.5 | 2.5 | 
